Data: article PMC5634595, “Properties of halogenated and sulfonated porphyrins relevant for the selection of photosensitizers in anticancer and antimicrobial therapies” (PLoS ONE, 2017)

What was measured:
CT26 cells = assay: Dark cytotoxicity, MTT; assay type: cell-based, murine; conditions: CT26, 100 μM, 24 h
Protocol: (§1) The studies were performed on human lung adenocarcinoma (A549), murine colon carcinoma (CT26) and murine endothelial/vascular epithelium (2H11) cell lines. A549, CT26 and 2H11 cells were grown in full-strength DMEM with 4.5 g/L glucose, L-glutamine, sodium pyruvate and 3.7 g/L NaHCO3 (BioTech) with addition of 10% fetal bovine serum (BioTech, Poland) and supplemented by antibiotics (penicillin/streptomycin). Before the experiments, the cells were washed with PBS, removed by trypsinization, then re-plated into microplate (or culture flask) with appropriate cells density and maintained in a humidified atmosphere at 37 °C and 5% CO2.
(§2) MTT cytotoxicity assay (which determines the mitochondrial activity), based upon the ability of living cells to reduce (3-(4,5-dimethylthiazol-2-yl)2,5-diphenyl tetrazolium bromide (MTT) into formazan was used to assess photosensitizer-mediated cytotoxicity. Two identical 96-well plates with A549, CT26 or 2H11 cell cultures seeded on 96-plate microplate (10^4 per well) were used for each experiment. When the cells were attached to the plates, PS solution in growth medium (DMSO<0.5%) at concentrations between 0.1 to 100 μM was added to the culture. Treated cultures were incubated for optimal time (estimated experimentally) at 37°C in the dark. […] Data were expressed as mean absorbance value of six samples and standard error of the mean.

2H11 cells = assay: Dark cytotoxicity, MTT; assay type: cell-based, murine; conditions: 2H11, 100 μM, 24 h
Protocol: as §1, §2

[1] = test system: P. aeruginosa (ATCC19660); assay: Photodynamic inactivation of microorganisms, CFU; assay type: cell-based; conditions: PDI 10 J/cm^2, 420±20 nm, concentration not given
Protocol: (§3) The microorganisms used in PDI were: S. aureus (8325–4), E. faecalis (ATCC29212), E. coli (K12), P. aeruginosa (ATCC19660), S. marcescens (ATCC14756) and C. albicans (DAY286). The planctonic bacteria cells were cultured in brain heart infusion broth (Sigma-Aldrich) and LB Broth/Lennox (BioShop Lab Science Products) in an orbital incubator (37°C, 130 rpm), until the optical density reached 0.5, which corresponds to approximately 10^7 CFU per mL. The fungal yeasts were cultured in YPD Broth (BioShop) with overnight aeration at 30°C to reach ca. 10^6 CFU/mL. For PDI experiments cell suspensions of bacteria or fungal yeasts were incubated with various concentrations of the porphyrins at pH 7.4 (PBS) for 1 h in the dark at room temperature. Aliquots (1 mL) were transferred to a 12-well plate and illuminated with a blue light. We used blue-LED array (420±20 nm) to deliver a light dose of 10 J/cm^2 (measured with a power meter). Cells treated with photosensitizers in the dark were incubated covered with aluminum foil for the same time as the PDI groups (1 h). After illumination (or dark incubation) samples were shaken, diluted in PBS, mixed and plated (LB agar). Aliquots were taken from each well to determine the CFU value. Plates were streaked in triplicate and incubated for 12–36 h at 30 °C (for fungal yeasts) or 37 °C (for bacteria) in the dark to allow colony formation.

E. coli (K12) = assay: Photodynamic inactivation of microorganisms, CFU; assay type: cell-based; conditions: PDI 10 J/cm^2, 420±20 nm, concentration not given
Protocol: as §3

S. aureus (8325–4) = assay: Photodynamic inactivation of microorganisms, CFU; assay type: cell-based; conditions: 20 μM, 10 min irradiation (10 J/cm^2, 420±20 nm)
Protocol: as §3

A549 cells = assay: Dark cytotoxicity, MTT; assay type: cell-based, human; conditions: A549, 100 μM, 24 h
Protocol: as §1, §2

O=S(=O)(O)c1ccc(F)c(-c2c3nc(c(-c4c(F)ccc(S(=O)(=O)O)c4F)c4ccc([nH]4)c(-c4c(F)ccc(S(=O)(=O)O)c4F)c4nc(c(-c5c(F)ccc(S(=O)(=O)O)c5F)c5ccc2[nH]5)C=C4)C=C3)c1F [F2POH, 5,10,15,20-tetrakis(2,6-difluoro-3-sulfophenyl)porphyrin]
Cytotoxicity in the dark (CT26 cells): 25%
Cytotoxicity in the dark (2H11 cells): 25%
Decrease in survival / bacteria CFU killing [1]: 1.5–2 logs
Decrease in survival (E. coli (K12)): 1.5–2 logs
Reduction in colony forming units (CFU) (S. aureus (8325–4)): 6 logs
Cytotoxicity in the dark (A549 cells): 25%
